Source: patent publication US11242337B2, “Compounds useful for treating gastrointestinal tract disorders” (Ardelyx, Inc., priority 2017, dated 2022)
Counter-ions that a name gives are not always drawn.

How the values were obtained:
NHE3 [1] = target: T1, NHE3 (Homo sapiens, UniProt P48764); assay: Cell-based assay of NHE-3 activity (pre-incubation inhibition), human; settings: human Preincubation; for IC50 / pIC50: 0-30 μM test compound
T1 construct: expressed in transfected cells
T1 sequence (P48764 26-834): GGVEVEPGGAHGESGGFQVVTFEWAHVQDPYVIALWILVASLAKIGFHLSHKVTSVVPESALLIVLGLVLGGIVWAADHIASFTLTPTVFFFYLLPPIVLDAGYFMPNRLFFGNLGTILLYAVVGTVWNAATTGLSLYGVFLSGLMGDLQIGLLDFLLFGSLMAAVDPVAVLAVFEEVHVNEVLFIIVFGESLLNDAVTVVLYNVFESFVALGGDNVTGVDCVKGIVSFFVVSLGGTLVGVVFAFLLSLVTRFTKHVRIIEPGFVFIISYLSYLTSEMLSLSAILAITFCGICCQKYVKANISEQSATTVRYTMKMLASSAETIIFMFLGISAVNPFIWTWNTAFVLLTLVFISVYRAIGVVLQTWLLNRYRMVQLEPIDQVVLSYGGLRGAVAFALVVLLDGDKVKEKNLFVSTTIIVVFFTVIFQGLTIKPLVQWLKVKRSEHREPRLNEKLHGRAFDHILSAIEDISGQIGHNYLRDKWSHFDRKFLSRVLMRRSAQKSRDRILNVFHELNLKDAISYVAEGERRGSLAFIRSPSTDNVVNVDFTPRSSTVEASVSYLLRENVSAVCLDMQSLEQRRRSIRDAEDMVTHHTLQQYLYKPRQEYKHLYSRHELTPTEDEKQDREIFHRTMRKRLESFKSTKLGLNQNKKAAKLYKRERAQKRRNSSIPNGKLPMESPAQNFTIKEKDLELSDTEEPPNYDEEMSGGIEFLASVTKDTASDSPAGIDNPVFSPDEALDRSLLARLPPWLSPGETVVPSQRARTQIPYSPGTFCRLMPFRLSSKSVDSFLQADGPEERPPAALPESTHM
T1 sequence (Q99653 2-195 partner limits assumed): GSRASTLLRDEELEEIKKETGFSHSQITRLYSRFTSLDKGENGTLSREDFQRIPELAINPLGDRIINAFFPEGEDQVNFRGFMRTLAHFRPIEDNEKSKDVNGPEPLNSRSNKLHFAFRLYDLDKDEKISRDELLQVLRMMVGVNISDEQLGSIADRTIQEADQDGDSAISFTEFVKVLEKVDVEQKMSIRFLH
Outline: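 Activity read as initial rate of BCECF fluorescence ratio change per minute (ex 439/505, em 538 nm) following NH4Cl prepulse acid loading. Compound (0–30 μM) present during 10 min Na+-free acidification at room temperature; cells were PS120 fibroblasts stably co-expressing human NHE3 and NHERF2.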

NHE3 [2] = target: T1, NHE3; assay: Cell-based assay of NHE-3 activity (persistent inhibition), human; settings: human Persistence, 60 min incubation then washout
Outline: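 Persistent inhibition: compound (0-30 μM, 60 min, RT, NaCl-HEPES pH 7.4) removed before assay. Human NHE3/NHERF2 PS120 cells were then BCECF-loaded during NH4Cl pulse (30 min, 37 °C), acidified in Na+-free buffer, and Na+ added 10 min after washout; antiport measured as initial fluorescence-ratio change per minute.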

Compound | % inhibition (NHE3 [1]) | IC50 (NHE3 [1]) | % inhibition (NHE3 [2]) | IC50 (NHE3 [2]) | pIC50 (NHE3 [1]) | pIC50 (NHE3 [2])
C[C@@H](COCCOCCNC(=O)NCCCCNC(=O)NCCOCCOC[C@H](C)NS(=O)(=O)c1ccc(O[C@H]2c3cc(Cl)cc(Cl)c3C[C@@H]2N2CCC[C@@H](N)C2)cc1)NS(=O)(=O)c1ccc(O[C@H]2c3cc(Cl)cc(Cl)c3C[C@@H]2N2CCC[C@@H](N)C2)cc1 [Example 96, 1-(2-[2-[(2S)-2-[(4-[[(1S,2S)-2-[(3R)-3-Aminopiperidin-1-yl]-4,6-dichloro-2,3-dihydro-1H-inden-1-yl]oxy]benzene)sulfonamido]propoxy]ethoxy]ethyl)-3-(4-[[(2-[2-[(2S)-2-[(4-[[(1S,2S)-2-[(3R)-3-aminopiperidin-1-yl]-4,6-dichloro-2,3-dihydro-1H-inden-1-yl]oxy]benzene)sulfonamido]propoxy]ethoxy]ethyl)carbamoyl]amino]butyl)urea; hydrochloride] | C (>70%) | < 100 nM | C (>70%) | < 100 nM |  | 
CN(C)C(=O)N1CCN([C@H]2Cc3c(Cl)cc(Cl)cc3[C@@H]2Oc2ccc(S(=O)(=O)NCCOCCOCCNC(=O)NCCCCNC(=O)NCCOCCOCCNS(=O)(=O)c3ccc(O[C@H]4c5cc(Cl)cc(Cl)c5C[C@@H]4N4CCN(C(=O)N(C)C)CC4)cc3)cc2)CC1 [Example 76, 4-[(1S,2S)-4,6-dichloro-1-[4-[(2-[2-[2-([[4-([[2-(2-[2-[4-(4-[[(1S,2S)-4,6-dichloro-2-[4-(dimethylcarbamoyl)piperazin-1-yl]-2,3-dihydro-1H-inden-1-yl]oxy]benzene)sulfonamido]ethoxy]ethoxy)ethyl]carbamoyl]amino)butyl]carbamoyl]amino)ethoxy]ethoxy]ethyl)sulfamoyl]phenoxy]-2,3-dihydro-1H-inden-2-yl]-N,N-dimethylpiperazine-1-carboxamide] | C (>70%) | < 100 nM | A (NHE3 < 40%) | > 1000 nM |  | 
Cc1cc(S(=O)(=O)NCCOCCOCCNC(=O)NCCCCNC(=O)NCCOCCOCCNS(=O)(=O)c2cc(C)c(O[C@H]3c4cc(Cl)cc(Cl)c4C[C@@H]3N(C)C)cc2C)c(C)cc1O[C@H]1c2cc(Cl)cc(Cl)c2C[C@@H]1N(C)C [Example 82, 3-[2-(2-[2-[(4-[[(1S,2S)-4,6-Dichloro-2-(dimethylamino)-2,3-dihydro-1H-inden-1-yl]oxy]-2,5-dimethylbenzene)sulfonamido]ethoxy]ethoxy)ethyl]-[4-([[2-(2-[2-[(4-[[(1S,2S)-4,6-dichloro-2-(dimethylamino)-2,3-dihydro-1H-inden-1-yl]oxy]-2,5-dimethylbenzene)sulfonamido]ethoxy]ethoxy)ethyl]carbamoyl]amino)butyl]urea] | B (40-70%) |  | C (>70%) | 100 to 1000 nM | C (NHE3 pIC50 > 7) | 
N#Cc1cc(Cl)cc2c1C[C@H](N1CCNCC1)[C@H]2Oc1ccc(S(N)(=O)=O)cc1 [Example 146, 4-([(1S,2S)-6-Chloro-4-cyano-2-(piperazin-1-yl)-2,3-dihydro-1H-inden-1-yl]oxy)benzenesulfonamide] | C (>70%) |  | A (NHE3 < 40%) |  | C (NHE3 pIC50 > 7) | C (NHE3 pIC50 > 7)
O=C(NCCCCNC(=O)NCCOCCOCCNS(=O)(=O)c1ccc(O[C@H]2c3cc(Cl)cc(Cl)c3C[C@@H]2N2CC3CCC2C3)cc1)NCCOCCOCCNS(=O)(=O)c1ccc(O[C@H]2c3cc(Cl)cc(Cl)c3C[C@@H]2N2CC3CCC2C3)cc1 [Example 68] | C (>70%) |  | C (>70%) |  | C (NHE3 pIC50 > 7) | C (NHE3 pIC50 > 7)
Cc1cc(S(=O)(=O)N2CC[C@H](COCCOCCNC(=O)NCCCCNC(=O)NCCOCCOC[C@H]3CCN(S(=O)(=O)c4ccc(O[C@H]5c6cc(Cl)cc(Cl)c6C[C@@H]5N(C)C)c(C)c4)C3)C2)ccc1O[C@H]1c2cc(Cl)cc(Cl)c2C[C@@H]1N(C)C [Example 44, 3-[2-(2-[[(3S)-1-[(4-[[(1S,2S)-4,6-dichloro-2-(dimethylamino)-2,3-dihydro-1H-inden-1-yl]oxy]-3-methylbenzene)sulfonyl]pyrrolidin-3-yl]methoxy]ethoxy)ethyl]-1-[4-([[2-(2-[[(3S)-1-[(4-[[(1S,2S)-4,6-dichloro-2-(dimethylamino)-2,3-dihydro-1H-inden-1-yl]oxy]-3-methylbenzene)sulfonyl]pyrrolidin-3-yl]methoxy]ethoxy)ethyl]carbamoyl]amino)butyl]urea; bis(trifluoroacetic acid)] | C (>70%) |  | C (>70%) |  | C (NHE3 pIC50 > 7) | B (NHE3 pIC50 6-7)
Cc1cc(Cl)cc2c1C[C@H](N1CCC[C@@H](N)C1)[C@H]2Oc1ccc(S(=O)(=O)NCCOCCOCCNC(=O)NCCCCNC(=O)NCCOCCOCCNS(=O)(=O)c2ccc(O[C@H]3c4cc(Cl)cc(C)c4C[C@@H]3N3CCC[C@@H](N)C3)c(F)c2)cc1F [Example 10, 3-[2-(2-[2-[(4-[[(1S,2S)-2-[(3R)-3-Aminopiperidin-1-yl]-6-chloro-4-methyl-2,3-dihydro-1H-inden-1-yl]oxy]-3-fluorobenzene)sulfonamido]ethoxy]ethoxy)ethyl]-1-[4-[[(2-(2-[2-[(4-[[(1S,2S)-2-[(3R)-3-aminopiperidin-1-yl]-6-chloro-4-methyl-2,3-dihydro-1H-inden-1-yl]oxy]-3-fluorobenzene)sulfonamido]ethoxy]ethoxy)ethyl]carbamoyl]amino)butyl]urea; bis(trifluoroacetic acid)] | B (40-70%) |  | C (>70%) |  |  | 
C[C@H]1CCCCN1[C@H]1Cc2c(Cl)cc(Cl)cc2[C@@H]1Oc1ccc(S(=O)(=O)NCCOCCOCCNC(=O)NCCCCNC(=O)NCCOCCOCCNS(=O)(=O)c2ccc(O[C@H]3c4cc(Cl)cc(Cl)c4C[C@@H]3N3CCCC[C@@H]3C)cc2)cc1 [Example 67, 3-[2-(2-[2-[(4-[[(1S,2S)-4,6-Dichloro-2-[(2S)-2-methylpiperidin-1-yl]-2,3-dihydro-1H-inden-1-yl]oxy]benzene)sulfonamido]ethoxy]ethoxy)ethyl]-1-[4-([[2-(2-[2-[(4-[[(1S,2S)-4,6-dichloro-2-[(2S)-2-methylpiperidin-1-yl]-2,3-dihydro-1H-inden-1-yl]oxy]benzene)sulfonamide]ethoxy]ethoxy)ethyl]carbamoyl]amino)butyl]urea] | C (>70%) | 100 to 1000 nM | B (40-70%) | 100 to 1000 nM |  | 
N#Cc1cc(Cl)cc2c1C[C@H](N1CCC[C@@H](N)C1)[C@H]2Oc1ccc(S(=O)(=O)NCCOCCOCCNC(=O)NCCCCNC(=O)NCCOCCOCCNS(=O)(=O)c2ccc(O[C@H]3c4cc(Cl)cc(C#N)c4C[C@@H]3N3CCC[C@@H](N)C3)cc2)cc1 [Example 4, 3-[2-(2-[2-[(4-[[(1S,2S)-2-[(3R)-3-Aminopiperidin-1-yl]-6-chloro-4-cyano-2,3-dihydro-1H-inden-1-yl]oxy]benzene)sulfonamido]ethoxy]ethoxy)ethyl]-1-[4-([[2-(2-[2-[(4-[[(1S,2)-2-[(3R)-3-aminopiperidin-1-yl]-6-chloro-4-cyano-2,3-dihydro-1H-inden-1-yl]oxy]benzene)sulfonamido]ethoxy]ethoxy)ethyl]carbamoyl]amino)butyl]urea; bis(trifluoroacetic acid)] | B (40-70%) |  | B (40-70%) |  |  | 
Cc1cc(S(=O)(=O)NCCOCCOCCNC(=O)NCCCCNC(=O)NCCOCCOCCNS(=O)(=O)c2ccc(O[C@H]3c4cc(Cl)cc(Cl)c4C[C@@H]3N3CCN(C)CC3)c(C)c2)ccc1O[C@H]1c2cc(Cl)cc(Cl)c2C[C@@H]1N1CCN(C)CC1 [Example 73] | C (>70%) | 100 to 1000 nM | B (40-70%) |  |  | A (NHE3 pIC50 < 6)
